# Laboratory results reported in PubChem BioAssay AID1963440 (Molecular Pharmacology Branch, DTP, NCI, 2024).
# System: NCI-H1417 complex spheroids, growth % test/control
# Experiment: Anticancer human tumor NCI-H1417 cell line growth inhibition [Asc];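 also: spheroids exposed to compounds for 7 days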;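 as to viability, T/C: 100% = DMSO vehicle control wells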
# Conditions: for IC50: curve of first compound; for viability, T/C: stronger effect = lower value
# Procedure, shortened: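 Spheroid model: tumor line + HUVEC + hMSC. Single agents and combinations; top conc. at/near clinical Cmax (10 microM if undetermined), half-log dilutions. DMSO stocks at 800-fold test concentration.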
# [1] = second compound 0.1 µM, first compound 0.0316 µM
# [2] = second compound 0.1 µM, first compound 0.1 µM
# [3] = second compound 0.1 µM, first compound 0.316 µM
# [4] = second compound 0.1 µM, first compound 1 µM
# [5] = second compound 0.1 µM, first compound 3.16 µM
# [6] = second compound 0.1 µM, first compound 10 µM
# [7] = second compound 0.316 µM, first compound 0.0316 µM
# [8] = second compound 0.316 µM, first compound 0.1 µM
# [9] = second compound 0.316 µM, first compound 0.316 µM
# [10] = second compound 0.316 µM, first compound 1 µM
# [11] = second compound 0.316 µM, first compound 3.16 µM
# [12] = second compound 0.316 µM, first compound 10 µM
# [13] = second compound 1 µM, first compound 0.0316 µM
# [14] = second compound 1 µM, first compound 0.1 µM
# [15] = second compound 1 µM, first compound 0.316 µM
# [16] = second compound 1 µM, first compound 1 µM
# [17] = second compound 1 µM, first compound 3.16 µM
# [18] = second compound 1 µM, first compound 10 µM
Structure (SMILES),IC50 (second compound 0.1 µM) [nM],IC50 (second compound 0.316 µM) [nM],IC50 (second compound 1 µM) [nM],"viability, T/C [1] [%]","viability, T/C [2] [%]","viability, T/C [3] [%]","viability, T/C [4] [%]","viability, T/C [5] [%]","viability, T/C [6] [%]","viability, T/C [7] [%]","viability, T/C [8] [%]","viability, T/C [9] [%]","viability, T/C [10] [%]","viability, T/C [11] [%]","viability, T/C [12] [%]","viability, T/C [13] [%]","viability, T/C [14] [%]","viability, T/C [15] [%]","viability, T/C [16] [%]","viability, T/C [17] [%]",also measured
O=C(c1cc(Cc2n[nH]c(=O)c3ccccc23)ccc1F)N1CCN(C(=O)C2CC2)CC1 + Cc1c(S(C)(=O)=O)c(-c2cc(F)cc(N3CCN(c4ccc(NS(=O)(=O)c5ccc(NC(CCN6CCC(C(=O)OCCCP(=O)(O)O)CC6)CSc6ccccc6)c(S(=O)(=O)C(F)(F)F)c5)cc4)CC3)c2)c(-c2ccc(Cl)cc2)n1C(C)C,1110,< 31.6,< 31.6,78.7,78.5,69.3,52.8,25.5,5.06,44.5,37,35.1,23.2,7.41,3.61,10.6,14.2,8.49,5.49,2.71,"IC50 (second compound 3.16 µM): < 31.6 nM; IC50 (second compound 10 µM): < 31.6 nM; viability, T/C [18]: 3.64%; viability, T/C (second compound 3.16 µM, first compound 0.0316 µM): 2.9%; viability, T/C (second compound 3.16 µM, first compound 0.1 µM): 2.62%; viability, T/C (second compound 3.16 µM, first compound 0.316 µM): 2.54%; viability, T/C (second compound 3.16 µM, first compound 1 µM): 2.33%; viability, T/C (second compound 3.16 µM, first compound 3.16 µM): 2.43%; viability, T/C (second compound 3.16 µM, first compound 10 µM): 2.96%; viability, T/C (second compound 10 µM, first compound 0.0316 µM): 2.71%; viability, T/C (second compound 10 µM, first compound 0.1 µM): 2.63%; viability, T/C (second compound 10 µM, first compound 0.316 µM): 2.54%; viability, T/C (second compound 10 µM, first compound 1 µM): 1.96%; viability, T/C (second compound 10 µM, first compound 3.16 µM): 2.66%; viability, T/C (second compound 10 µM, first compound 10 µM): 3.21%"
C=CC(=O)N1CCN(c2nc(=O)n(-c3c(C)ccnc3C(C)C)c3nc(-c4c(O)cccc4F)c(F)cc23)C(C)C1 (stereo not given) + CNC(C)C(=O)NC1CN(S(=O)(=O)c2cccc(S(=O)(=O)N3CCC4CCC(C(=O)NC(c5ccccc5)c5ccccc5)N4C(=O)C(NC(=O)C(C)NC)C3)c2)CCC2CCC(C(=O)NC(c3ccccc3)c3ccccc3)N2C1=O,> 10000,> 10000,> 10000,99.3,87.5,96.7,96.9,92,88.2,84.6,94.3,94.6,92.5,93.8,86.2,90.9,101,89.4,90.2,104,"IC50 (second compound 0.01 µM): > 10000 nM; IC50 (second compound 0.0316 µM): > 10000 nM; viability, T/C (second compound 0.01 µM, first compound 0.0316 µM): 94%; viability, T/C (second compound 0.01 µM, first compound 0.1 µM): 90%; viability, T/C (second compound 0.01 µM, first compound 0.316 µM): 97.6%; viability, T/C (second compound 0.01 µM, first compound 1 µM): 96.2%; viability, T/C (second compound 0.01 µM, first compound 3.16 µM): 102%; viability, T/C (second compound 0.01 µM, first compound 10 µM): 103%; viability, T/C (second compound 0.0316 µM, first compound 0.0316 µM): 88.1%; viability, T/C (second compound 0.0316 µM, first compound 0.1 µM): 99.8%; viability, T/C (second compound 0.0316 µM, first compound 0.316 µM): 89.9%; viability, T/C (second compound 0.0316 µM, first compound 1 µM): 94.4%; viability, T/C (second compound 0.0316 µM, first compound 3.16 µM): 97.6%; viability, T/C (second compound 0.0316 µM, first compound 10 µM): 87.8%; viability, T/C [18]: 93.3%"
